Experimental findings from US20210085801A1, “A[…] COPOLYMERS, […], AND METHODS FOR TREATING OR […] FAILURE” (CARDIOL THERAPEUTICS INC., priority 2017, published 2021) are described below.

The nature of series [1]: Pharmacokinetic animal study, subcutaneous injection. As to conditions: SC, single dose 10 mg/kg, rats, plasma CBD.
Protocol: Cannulated adult male Sprague-Dawley rats were used for the pharmacokinetic experiments.
Rats were divided into 2 groups (n=4/group). Groups 1 and 2 received CBD either encapsulated in PEO-PBCL23 (referred to herein as Micellar CBD (DP 23)) or in free form (CBD dissolved in polyethylene glycol 400 (also referred to as PEG 400)). The administration was by way of subcutaneous injection in the right flank. A single dose of 10 mg/kg was administered to the rats of all groups.
Serial blood samples (200 μL) were collected using jugular vein catheters prior to CBD administration and at 0.25, 0.5, 0.75, 1, 2, 4, 6, 12 and 24, 48 and 72 hours post CBD administration. Plasma was separated (by using a centrifuge) from the samples and kept at −20° C. until it was analyzed for drug content.
100 μL of plasma samples were analyzed for CBD content as follows. The samples were spiked with internal standard (CBD d3 1 μg/mL) and 400 μL of cold acetonitrile was added to each sample. The mixture was vortexed for 1 minute and then 400 μL of water was added and the resulting mixture was further vortexed for 1 minute. Then 4 mL n-Hexane was added and the resulting mixture further vortexed for 5 minutes. The samples were centrifuged at 1160×g for 15 minutes and the organic phase layers were separated and transferred to clean tubes and evaporated to dryness. The residue was then analyzed for CBD content using a liquid chromatography-mass spectrometry (LC-MS) method involving the use of a Waters Quattro Micro triple quadrupole mass spectrometer. The residue samples were ran in MRM mode using the 315 to 193 transition for CBD, 318 to 196 for Cannabidiol-D3 solution and 311 to 223 for Cannabinol (CBN). A C18 Agilent Poroshell 120 EC column (2.1×50 mm; 2.7 μm particles) was used. The mobile phase consisted of 0.1% formic acid in HPLC-grade water (Solution A) and 0.1% formic acid in HPLC-grade acetonitrile (Solution B). A gradient elution was programmed to co33mmence with 40% Solution B for post-injection followed by gradual increase in 3 min. of Solution B to 95%. […] The flow rate was 0.3 mL/min. and 2 μL was injected. The lowest limit of quantification was set at 10 ng/mL.
The total amount of CBD that entered the bloodstream (AUC0-t; 72 h) was calculated using the trapezoidal rule from 0 to the last measured plasma concentration (Clast). The terminal elimination rate constant (β) was estimated using the linear least square regression of the log-linear phase of the concentration-time. Cmax and Tmax were the highest observed concentration and corresponding sampling time point.
Series [2] is described as follows: In vitro release study (dialysis bag, 4% BSA). The format is physicochemical. The note with it: dialysis bag in 300 mL 4% BSA, 37° C. The method, then: An in vitro release study was performed to determine the in vitro release characteristic of free CBD and the above micelle encapsulated CBD formulations (Micellar CBD (DP 23) and d Micellar CBD (DP 15)).
Each of three formulations shown in Table 4 having equal concentrations of CBD were placed in separate Spectra/Por dialysis bags (molecular weight cut-off=12,000-14,000 g mol-1). The dialysis bags were sealed with clips and placed in a beaker with 300 mL 4% bovine serum albumin (BSA), then in a 37° C. shaker. At time 0 and 24 hours, the volume within each bag was measured, and a sample of each solution was taken from inside the dialysis bag and quantified by HPLC. The protocol that was used is described in Aliabadi et al, Journal of Controlled Release (2005) 104 (2), 301-311, which protocol is incorporated herein by reference.

Usually Cmax stands for the highest concentration seen after dosing.

`C=C(C)[C@@H]1CCC(C)=C[C@H]1c1c(O)cc(CCCCC)cc1O` [Free-CBD, Cannabidiol]: in series [1], the AUC0-6 was 209.45 ± 210.52 ng·h/mL, the AUC0-72 h was 687.12 ± 217.39 ng·h/mL, the maximum concentration (Cmax) is on record as 94 ± 86.27 ng/mL and the tmax is 9 ± 10.13 h. Besides, the “% CBD released after 24 hours” value in series [2] is “rapid release”. For the same compound, in series [2] (listed as Free-CBD dissolved in acetonitrile), the “% CBD released after 24 hours” value stood at 70.65%.
